Source: patent publication US20190092789A1, “HETEROBICYCLIC PYRIMIDINONE COMPOUNDS AND THEIR USE IN THE TREATMENT OF MEDICAL DISORDERS” (priority 2015, published 2019)
Converted amounts (≈) assume the structure as drawn.

Experiments:
[1] = molecular target: T1, glucocerebrosidase (Gcase) (Homo sapiens, UniProt P04062); assay: Glucocerebrosidase (Gcase) activation assay, 4-methylumbelliferyl-beta-D-glucopyranoside substrate, with saposin C; assay type: biochemical; details: 10 nM GCase, 100 nM saposin C, pH 4.7; for activation at 0.1 µM: read-out: Percent Gcase Activation, 0.1 μM Test Compound; for activation at 1 µM: 0.25 h, read-out: Percent Gcase Activation, 1 μM Test Compound
T1 construct: 100 μL of micellar solution containing 10 nM GCase and 100 nM saposin C (Enzo ALX-201-262-C050)
T1 sequence (P04062 40-536): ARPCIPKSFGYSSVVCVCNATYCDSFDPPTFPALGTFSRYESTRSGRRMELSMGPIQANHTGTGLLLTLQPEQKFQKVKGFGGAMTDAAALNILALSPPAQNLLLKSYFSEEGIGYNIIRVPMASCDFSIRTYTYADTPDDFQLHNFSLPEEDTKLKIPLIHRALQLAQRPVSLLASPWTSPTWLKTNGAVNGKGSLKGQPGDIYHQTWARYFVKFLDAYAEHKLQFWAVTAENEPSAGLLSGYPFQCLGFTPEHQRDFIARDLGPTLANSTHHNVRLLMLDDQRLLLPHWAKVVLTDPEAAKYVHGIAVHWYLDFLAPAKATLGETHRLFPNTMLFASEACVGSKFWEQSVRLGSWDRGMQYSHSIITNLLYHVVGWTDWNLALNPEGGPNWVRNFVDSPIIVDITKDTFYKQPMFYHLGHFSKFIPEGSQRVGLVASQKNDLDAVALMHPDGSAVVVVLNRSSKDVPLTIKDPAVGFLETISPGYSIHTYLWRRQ
Method: A 484 μL aliquot of a 1.0 mg/mL solution of phosphatidylserine (PS) (Sigma P7769) in chloroform was evaporated under a stream of nitrogen for 1 hour. The lipid film was dissolved over 4 minutes of vigorous vortexing in 40 mL of 176 mM K2HPO4/50 mM citric acid (pH 4.7) containing 7.5 μL of triton X-100, resulting in a mixed micellar preparation with a composition of 0.32 mM triton and 0.37 mol % PS. 4-Methylumbelliferyl-beta-D-glucopyranoside (ACROS-337025000) was dissolved in the micellar solution to a final concentration of 2 mM for use as the reaction substrate.
Test compounds were diluted to the desired concentrations with dimethylsulfoxide (DMSO) from 10 mM stocks, and 0.41 μL of the DMSO compound mixture was added to 100 μL of micellar solution containing 10 nM GCase and 100 nM saposin C (Enzo ALX-201-262-C050). Pre-incubation was allowed to occur for 30 minutes at room temperature, after which the reaction was initiated by combining 25 μL of substrate solution with 25 μL of compound/GCase/saposin mixture. The reaction proceeded for 15 minutes at room temperature and was stopped by adding 150 μL of 1M glycine, pH 12.5. The endpoint of the reaction was monitored by measuring fluorescence intensity (excitation: 365 nm; emission: 440 nm) on a SpectraMax i3 instrument (Molecular Devices). Test compounds were screened at 1.0 and 0.1 μM final concentration, and subsequent 8-point dose response curves were obtained using 3-fold dilutions from a maximum final concentration of 5 μM.

[2] = Compound solubility in water

| Molecule | activation at 0.1 µM ([1]; 0.1 μM test compound) [%] | activation at 1 µM ([1]; 1 μM test compound) [%] | solubility [2] [µg/mL] | Percent Gcase Activation, 0.1 μM Test Compound ([1]; 0.1 μM test compound) | Percent Gcase Activation, 1 μM Test Compound ([1]; 1 μM test compound) |
| --- | --- | --- | --- | --- | --- |
| CCc1ccc(NC(=O)c2cnc3occn3c2=O)cc1 | < 5 | 5 to 10 |  |  |  |
| CCC(C)c1ccc(NC(=O)c2cnc3occn3c2=O)cc1 (stereo not shown) | < 5 | > 10 | 0.3 (≈ 0.964 µM) |  |  |
| CCC(C)c1ccc(NC(=O)c2cnc3n(C)ccn3c2=O)cc1 (stereo not shown) | < 5 | > 10 | 0.5 (≈ 1.54 µM) |  |  |
| CCC(C)c1ccc(NC(=O)c2cnc3[nH]ccn3c2=O)cc1 (stereo not shown) | < 5 | 5 to 10 | 1.4 (≈ 4.51 µM) |  |  |
| O=C(NC1CCc2ccccc21)c1cnc2occn2c1=O (stereo not shown) | < 5 | 5 to 10 | 25.1 (≈ 85 µM) |  |  |
| O=C(Nc1ccc2c(c1)OCCO2)c1cnc2occn2c1=O | < 5 | < 5 | 5.5 (≈ 17.6 µM) |  |  |
| CCN1CCN(c2ccc(NC(=O)c3cnc4occn4c3=O)cc2)CC1 | < 5 | < 5 | 40.2 (≈ 109 µM) |  |  |
| O=C(Nc1ccc(N2CCCCC2)cc1)c1cnc2occn2c1=O | < 5 | < 5 | 2.2 (≈ 6.5 µM) |  |  |
| C[C@@H](NC(=O)c1cnc2occn2c1=O)c1ccccc1 | < 5 | < 5 | 25.6 (≈ 90.4 µM) |  |  |
| O=C(NC1CCC(c2ccccc2)CC1)c1cnc2occn2c1=O (stereo not shown) | < 5 | > 10 | 58 (≈ 172 µM) |  |  |
| CN1Cc2ccc(NC(=O)c3cnc4occn4c3=O)cc2C1 | < 5 | 5 to 10 | 16.6 (≈ 53.5 µM) |  |  |
| O=C(NC1CCc2ccccc2C1)c1cnc2occn2c1=O (stereo not shown) | 5 to 10 | < 5 | 22.6 (≈ 73.1 µM) |  |  |
| C#Cc1ccc(NC(=O)c2cnc3occn3c2=O)cc1 | 5 to 10 | 5 to 10 | 5.5 (≈ 19.7 µM) |  |  |
| O=C(NC1CCCc2ccccc21)c1cnc2occn2c1=O (stereo not shown) | < 5 | > 10 | 30.2 (≈ 97.6 µM) |  |  |
| N-(4-butylcyclohexyl)-6-oxo-3,4-dihydro-2H,6H-pyrimido[2,1-b][1,3]thiazine-7-carboxamide |  |  |  | + (less than 5% Gcase activation) | +++ (Gcase activation greater than 10%) |
